In patent US20100144712A1 (priority 2007, published 2010):
Values after ≈ are worked out from the molar mass of the structure shown.

Legend:
Assay type in all cases: cell-based
[1] = test system: Candida albican ATCC 90873; test: In vitro antifungal activity (MIC80), Candida albican ATCC 90873; details: Candida, ATCC90873; Table 2, ATCC 90873; read-out: Minimal inhibitory concentration (MIC80)
Experimental: (§1) In vitro antifungal activities of the inventive antifungal compounds were evaluated using test strains including Candida albican (ATCC 90873, 204276, 62342, 64124, 64550, 96901, MYA-573, MYA-574, MYA-575, MYA-576, MYA-1003) and Aspergillus fumigatus (ATCC 16424). Test samples and positive control samples were prepared by dissolving the inventive compounds and comparative compounds, i.e., amphotericin B, fluconazole and itraconazole, in DMSO, respectively, and each successively diluted with medium to obtain test and positive control solutions having test compound concentrations of 0.125 μg/ml to a maximum concentration not generating turbidity. Minimal inhibitory concentration (MIC80) of each compound was determined as the lowest concentration of the test compounds required to reduce growth by 80% relative to a control strain not treated.
(§2) 1) Test strain: Candida albican ATCC 90873, 204276, 62342, 64124, 64550, 96901, MYA-573, MYA-574, MYA-575, MYA-576, MYA-1003, and Aspergillus fumigatus ATCC 16424 were commercially obtained from The American Type Culture Collection (ATCC) and subcultured in CHEMON Co. Ltd. (amphotericin B was commercially purchased from Sigma, and fluconazole and itraconazole were prepared according to methods described in British Patent No. 2,099,818; and U.S. Pat. No. 4,267,179, respectively).
(§3) 2) Medium and culture condition: Candida albican was cultured in Sabourad Dextrose Agar, YM Agar or Potato Dextrose Agar according to ATCC information at a temperature of 37° C., 35° C., 30° C. or 25° C. Aspergillus fumigatus was cultured in Malt Extract Agar or Potato Dextrose Agar at a temperature ranging from 24 to 27° C.
(§4) 3) Preparation of test samples: the inventive compounds and comparative compounds were each diluted with DMSO to obtain 1 to 2 ml of a test sample in a concentration of 100-folds of the determining maximum concentration (256 μg/ml).
(§5) The test samples were each successively diluted with RPMI 1640 to obtain test solutions having concentrations of […] in a 12×75 mm sterilized disposable culture tube. The final concentration of DMSO was adjusted to […] (v/v).
(§6) 5) Preparation of strain solution and inoculation
(§7) Candida albican strains were each subcultured in Sabourad Dextrose Agar, YM Agar or Potato Dextrose Agar medium at 35° C. for 2˜3 days. In the case of yeasts, a single colony was taken from prominent colonies and suspended in 0.85% sterile physiological saline solution and the turbidity of the suspension was adjusted to 80˜82% at 530 nm, and then diluted 50-fold with RPMI 1640 medium to 1.0×10^3˜5.0×10^3 CFU/ml. The turbidity of fungi was adjusted to 80˜82% and the suspension was diluted 50-fold to […]. Aspergillus fumigatus strains were subcultured in Malt Extract Agar for 7˜10 days, and a single colony was taken from prominent colonies and suspended in 0.85% sterile physiological saline solution and the suspension was adjusted to 0.108 at 530 nm, and then diluted 1000-fold with RPMI 1640 medium to 0.4×10^2˜5×10^4 CFU/ml. The turbidity of fungi was adjusted to 80˜82% and the suspension was diluted 50-fold to 0.4102˜0.5104 CFU/ml.
(§8) The strain solutions thus obtained were each seeded into a sterilized 96-well microplate, 0.1 ml of each test solution were added thereto, and […] of alamarblue was treated to each well (Biosource, #DAL1100). This procedure was repeated 2 times.
(§9) Minimal inhibitory concentration (MIC80) of each compound was determined as the lowest concentration of the test compounds required to reduce growth by 80% relative to a control strain not treated.

[2] = test system: Candida albican ATCC MYA-574; test: In vitro antifungal activity (MIC80), Candida albican ATCC MYA-574; details: Candida; Table 2, MYA 574; read-out: Minimal inhibitory concentration (MIC80)
Experimental: as §1, §2, §3, §4, §5, §6, §7, §8, §9

[3] = test system: Candida albican ATCC 64550; test: In vitro antifungal activity (MIC80), Candida albican ATCC 64550; details: Candida, ATCC64550; Table 2, 64550; read-out: Minimal inhibitory concentration (MIC80)
Experimental: as §1, §2, §3, §4, §5, §6, §7, §8, §9

[4] = test system: Candida albican ATCC MYA-575; test: In vitro antifungal activity (MIC80), Candida albican ATCC MYA-575; details: Candida; Table 2, MYA 575; read-out: Minimal inhibitory concentration (MIC80)
Experimental: as §1, §2, §3, §4, §5, §6, §7, §8, §9

[5] = test system: Candida albican ATCC MYA-1003; test: In vitro antifungal activity (MIC80), Candida albican ATCC MYA-1003; details: Candida; Table 2, MYA 1003; read-out: Minimal inhibitory concentration (MIC80)
Experimental: as §1, §2, §3, §4, §5, §6, §7, §8, §9

[6] = test system: Candida albican ATCC 62342; test: In vitro antifungal activity (MIC80), Candida albican ATCC 62342; details: Candida, ATCC62342; Table 2, 62342; read-out: Minimal inhibitory concentration (MIC80)
Experimental: as §1, §2, §3, §4, §5, §6, §7, §8, §9

[7] = test system: Candida albican ATCC 64124; test: In vitro antifungal activity (MIC80), Candida albican ATCC 64124; details: Candida, ATCC64124; Table 2, 64124; read-out: Minimal inhibitory concentration (MIC80)
Experimental: as §1, §2, §3, §4, §5, §6, §7, §8, §9

[8] = test system: Candida albican ATCC MYA-576; test: In vitro antifungal activity (MIC80), Candida albican ATCC MYA-576; details: Candida; Table 2, MYA 576; read-out: Minimal inhibitory concentration (MIC80)
Experimental: as §1, §2, §3, §4, §5, §6, §7, §8, §9

[9] = test system: Candida albican ATCC MYA-573; test: In vitro antifungal activity (MIC80), Candida albican ATCC MYA-573; details: Candida; Table 2, MYA 573; read-out: Minimal inhibitory concentration (MIC80)
Experimental: as §1, §2, §3, §4, §5, §6, §7, §8, §9

[10] = test system: Candida albican ATCC 96901; test: In vitro antifungal activity (MIC80), Candida albican ATCC 96901; details: Candida, ATCC96901; Table 2, ATCC 96901; read-out: Minimal inhibitory concentration (MIC80)
Experimental: as §1, §2, §3, §4, §5, §6, §7, §8, §9

SMILES | MIC80 [1] | MIC80 [2] | MIC80 [3] | MIC80 [4] | MIC80 [5] | MIC80 [6] | MIC80 [7] | MIC80 [8] | MIC80 [9] | MIC80 [10]
CC(N1CCN(c2ccc(N(C)CCCN3CCOCC3)nc2)CC1)C(O)(Cn1cncn1)c1ccc(F)cc1F (stereo not drawn) [Example 36] | 2 µg/mL (≈ 3.5 µM) | 8 µg/mL (≈ 14 µM) | 16 µg/mL (≈ 28 µM) | 2 µg/mL (≈ 3.5 µM) | 128 µg/mL (≈ 224 µM) | 4 µg/mL (≈ 7.01 µM) | 128 µg/mL (≈ 224 µM) | 4 µg/mL (≈ 7.01 µM) | 8 µg/mL (≈ 14 µM) | 16 µg/mL (≈ 28 µM)
C[C@@H](N1CCN(Cc2ccncc2)CC1)[C@](O)(Cn1cncn1)c1ccc(F)cc1F [Example 42, (2R,3R)-2-(2,4-difluorophenyl)-3-(4-((pyridin-4-yl)methyl)piperazin-1-yl)-1-(1H-1,2,4-triazol-1-yl)butan-2-ol] | 0.125 µg/mL (≈ 0.292 µM) | 4 µg/mL (≈ 9.34 µM) | 4 µg/mL (≈ 9.34 µM) | 0.5 µg/mL (≈ 1.17 µM) | 128 µg/mL (≈ 299 µM) | 0.5 µg/mL (≈ 1.17 µM) | 64 µg/mL (≈ 149 µM) | 0.125 µg/mL (≈ 0.292 µM) | 1 µg/mL (≈ 2.33 µM) | 64 µg/mL (≈ 149 µM)
C[C@@H](N1CCCN(c2nc3ccccc3o2)CC1)[C@](O)(Cn1cncn1)c1ccc(F)cc1F [Example 15, (2R,3R)-3-(4-(benzooxazol-2-yl)-1,4-diazepan-1-yl)-2-(2,4-difluorophenyl)-1-(1H-1,2,4-triazol-1-yl)butan-2-ol] | 0.125 µg/mL (≈ 0.267 µM) | 1 µg/mL (≈ 2.13 µM) | 2 µg/mL (≈ 4.27 µM) | 0.125 µg/mL (≈ 0.267 µM) | > 128 µg/mL | 0.25 µg/mL (≈ 0.534 µM) | 8 µg/mL (≈ 17.1 µM) | 0.125 µg/mL (≈ 0.267 µM) | 0.5 µg/mL (≈ 1.07 µM) | 16 µg/mL (≈ 34.2 µM)
C[C@@H](N1CCN(c2ccc(OCCN3CCOCC3)nc2)CC1)[C@](O)(Cn1cncn1)c1ccc(F)cc1F [Example 34, (2R,3R)-2-(2,4-difluorophenyl)-3-(4-(6-(2-morpholinoethoxy)pyridin-3-yl)piperazin-1-yl)-1-(1H-1,2,4-triazol-1-yl)butan-2-ol] | 0.125 µg/mL (≈ 0.23 µM) | 2 µg/mL (≈ 3.68 µM) | 2 µg/mL (≈ 3.68 µM) | 0.125 µg/mL (≈ 0.23 µM) | 128 µg/mL (≈ 235 µM) | 0.5 µg/mL (≈ 0.92 µM) | 32 µg/mL (≈ 58.9 µM) | 0.125 µg/mL (≈ 0.23 µM) | 2 µg/mL (≈ 3.68 µM) | 32 µg/mL (≈ 58.9 µM)
CC(C)Oc1ccc(N2CCN([C@H](C)[C@](O)(Cn3cncn3)c3ccc(F)cc3F)CC2)cn1 [Example 33, (2R,3R)-2-(2,4-difluorophenyl)-3-(4-(6-(isopropyloxy)pyridin-3-yl)piperazin-1-yl)-1-(1H-1,2,4-triazol-1-yl)butan-2-ol] | 0.125 µg/mL (≈ 0.265 µM) | 4 µg/mL (≈ 8.46 µM) | 4 µg/mL (≈ 8.46 µM) | 0.125 µg/mL (≈ 0.265 µM) | > 128 µg/mL | 2 µg/mL (≈ 4.23 µM) | 64 µg/mL (≈ 135 µM) | 0.125 µg/mL (≈ 0.265 µM) | 2 µg/mL (≈ 4.23 µM) | 64 µg/mL (≈ 135 µM)
C[C@@H](N1CCN(c2cccc(OCc3cccs3)n2)CC1)[C@](O)(Cn1cncn1)c1ccc(F)cc1F [Example 25, (2R,3R)-2-(2,4-difluorophenyl)-3-(4-(6-(thiophen-2-ylmethoxy)pyridin-2-yl)piperazin-1-yl)-1-(1H-1,2,4-triazol-1-yl)butan-2-ol] | 0.25 µg/mL (≈ 0.475 µM) | > 128 µg/mL | > 128 µg/mL | 1 µg/mL (≈ 1.9 µM) | > 128 µg/mL | > 128 µg/mL | > 128 µg/mL | 0.5 µg/mL (≈ 0.949 µM) | 2 µg/mL (≈ 3.8 µM) | > 128 µg/mL
